What was measured:
[1] = test system: late watergrass; test: Test Example 1: herbicidal activity, application before weed generation under submerged conditions (Table 16, symbol A); assay type: in vivo, late watergrass (Echinochloa oryzicola)
How it was run: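 Alluvial soil was flooded to 4 cm depth, weed seeds were sown mixed and 2.5-leaf rice seedlings were transplanted. On sowing day, the compound's emulsion, diluted in water to a set dose, was applied to the water surface. Plants grew at 25–30 °C and were scored 0–5 after three weeks.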

[2] = test system: late watergrass; test: Test Example 2: herbicidal activity, application during weed generation under submerged conditions (Table 17, symbol A); assay type: in vivo, late watergrass (Echinochloa oryzicola); conditions: for herbicidal effect grade, A: late watergrass: application during weed generation under submerged conditions; for herbicidal effect rating, A: late watergrass: application during weed generation, submerged conditions
How it was run: (§1)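 3-wk visual-criteria score after one water-surface dose. Emulsion formulation, water-diluted to set rate; applied at 1–2 leaf stage; alluvial soil, 4 cm standing water; seeds co-sown; greenhouse 25–30° C.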

[3] = test system: Japanese bulrush; test: Test Example 2: herbicidal activity, application during weed generation under submerged conditions (Table 17, symbol B); assay type: in vivo, Japanese bulrush (Schoenoplectus juncoides); conditions: for herbicidal effect grade, B: Japanese bulrush: application during weed generation under submerged conditions; for herbicidal effect rating, B: Japanese bulrush: application during weed generation, submerged conditions
How it was run: as §1

[4] = test system: oval-leafed pondweed; test: Test Example 2: herbicidal activity, application during weed generation under submerged conditions (Table 17, symbol C); assay type: in vivo, oval-leafed pondweed (Monochoria vaginalis); conditions: for herbicidal effect grade, C: oval-leafed pondweed: application during weed generation under submerged conditions; for herbicidal effect rating, C: oval-leafed pondweed: application during weed generation, submerged conditions
How it was run: as §1

[5] = test system: barnyard grass; test: Test Example 3: herbicidal effect by foliage application, Wagner pot (Table 18, symbol H); assay type: in vivo, barnyard grass (Echinochloa crus-galli)
How it was run: (§2)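 Plants were sown in alluvial soil held under 0.1–0.5 cm standing water and grown 14 days in a greenhouse at 25–30 °C. An emulsifiable formulation, water-diluted to the set dose, was then sprayed onto the foliage, and effects were scored three weeks later using previously defined criteria.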

[6] = test system: rice flat sedge; test: Test Example 3: herbicidal effect by foliage application, Wagner pot (Table 18, symbol E); assay type: in vivo, rice flat sedge (Cyperus iria)
How it was run: as §2

[7] = test system: green foxtail; test: Test Example 4: herbicidal effect by soil treatment (Table 19, symbol G); assay type: in vivo, green foxtail (Setaria viridis)
How it was run: (§3)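 Seeds were sown in sterilized diluvial soil and covered with about 1.5 cm of soil. An emulsion formulation diluted with water to a predetermined herbicide amount was sprayed evenly onto the soil surface. Plants grew in a greenhouse at 25° C. to 30° C., and the effect was scored three weeks after application using criteria from an earlier test.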

[8] = test system: Italian ryegrass; test: Test Example 4: herbicidal effect by soil treatment (Table 19, symbol K); assay type: in vivo, Italian ryegrass (Lolium multiflorum)
How it was run: as §3

[9] = test system: windgrass; test: Test Example 4: herbicidal effect by soil treatment (Table 19, symbol L); assay type: in vivo, windgrass (Apera spica-venti)
How it was run: as §3

[10] = test system: chickweed; test: Test Example 4: herbicidal effect by soil treatment (Table 19, symbol P); assay type: in vivo, common chickweed (Stellaria media)
How it was run: as §3

[11] = test system: persian speedwell; test: Test Example 4: herbicidal effect by soil treatment (Table 19, symbol R); assay type: in vivo, Persian speedwell (Veronica persica)
How it was run: as §3

[12] = test system: southern crabgrass; test: Test Example 5: herbicidal effect by foliage application, plastic box (Table 20, symbol F); assay type: in vivo, southern crabgrass (Digitaria ciliaris); conditions: foliage application; for F (southern crabgrass) herbicidal effect grade: evaluated 3 weeks after application; for F: southern crabgrass, herbicidal effect grade: three weeks after application
How it was run: (§4)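 Plants sown in sterilized diluvial soil and grown 14 days in a greenhouse at 25° C to 30° C, then sprayed on the foliage with the compound's emulsion diluted in water to a predetermined herbicide amount. Injury to weeds and crops scored three weeks after application on a visual rating scale.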

[13] = test system: green foxtail; test: Test Example 5: herbicidal effect by foliage application, plastic box (Table 20, symbol G); assay type: in vivo, green foxtail (Setaria viridis); conditions: foliage application; for G (green foxtail) herbicidal effect grade: evaluated 3 weeks after application; for G: green foxtail, herbicidal effect grade: three weeks after application
How it was run: as §4

[14] = test system: Italian ryegrass; test: Test Example 5: herbicidal effect by foliage application, plastic box (Table 20, symbol K); assay type: in vivo, Italian ryegrass (Lolium multiflorum); conditions: foliage application; for K (Italian ryegrass) herbicidal effect grade: evaluated 3 weeks after application; for K: Italian ryegrass, herbicidal effect grade: three weeks after application
How it was run: as §4

[15] = test system: windgrass; test: Test Example 5: herbicidal effect by foliage application, plastic box (Table 20, symbol L); assay type: in vivo, windgrass (Apera spica-venti); conditions: foliage application; for L (windgrass) herbicidal effect grade: evaluated 3 weeks after application; for L: windgrass, herbicidal effect grade: three weeks after application
How it was run: as §4

[16] = test system: lambsquarters; test: Test Example 5: herbicidal effect by foliage application, plastic box (Table 20, symbol O); assay type: in vivo, lambsquarters (Chenopodium album); conditions: foliage application; for O (lambsquarters) herbicidal effect grade: evaluated 3 weeks after application; for O: lambsquarters, herbicidal effect grade: three weeks after application
How it was run: as §4

[17] = test system: persian speedwell; test: Test Example 5: herbicidal effect by foliage application, plastic box (Table 20, symbol R); assay type: in vivo, Persian speedwell (Veronica persica); conditions: foliage application; for R (persian speedwell) herbicidal effect grade: evaluated 3 weeks after application; for R: persian speedwell, herbicidal effect grade: three weeks after application
How it was run: as §4

[18] = amount of applied herbicide 402 g/ha
[19] = amount of applied herbicide 320 g/ha
[20] = amount of applied herbicide 214 g/ha

CCCC(=O)Oc1c(C)nn(C)c(=O)c1-c1c(-c2ccc(SC(C)C)cc2)oc2ccc(C)cc12 [9-060]
Herbicidal effect, A: late watergrass [1, 18]: 5 (Herbicidal rate of 90% or more (almost completely withered))
herbicidal effect grade, A: late watergrass [2, 18]: 4 (Herbicidal rate of 70% or more and less than 90%)
herbicidal effect grade, B: Japanese bulrush [3, 18]: 3 (Herbicidal rate of 40% or more and less than 70%)
herbicidal effect grade, C: oval-leafed pondweed [4, 18]: 4 (Herbicidal rate of 70% or more and less than 90%)
Herbicidal effect on H (barnyard grass), foliage application [5, 18]: 4 (Herbicidal rate of 70% or more and less than 90%)
Herbicidal effect on E (rice flat sedge), foliage application [6, 18]: 5 (Herbicidal rate of 90% or more (almost completely withered))
G: green foxtail, herbicidal effect grade [7, 18]: 3 (Herbicidal rate of 40% or more and less than 70%)
K: Italian ryegrass, herbicidal effect grade [8, 18]: 4 (Herbicidal rate of 70% or more and less than 90%)
L: windgrass, herbicidal effect grade [9, 18]: 0 (Herbicidal rate of 5% or less (almost no effect))
P: chickweed, herbicidal effect grade [10, 18]: 1 (Herbicidal rate of 5% or more and less than 20%)
R: persian speedwell, herbicidal effect grade [11, 18]: 5 (Herbicidal rate of 90% or more (almost completely withered))
F (southern crabgrass) herbicidal effect grade ([12]; 402 g/ha): 0 (Herbicidal rate of 5% or less (almost no effect))
G (green foxtail) herbicidal effect grade ([13]; 402 g/ha): 5 (Herbicidal rate of 90% or more (almost completely withered))
K (Italian ryegrass) herbicidal effect grade ([14]; 402 g/ha): 5 (Herbicidal rate of 90% or more (almost completely withered))
L (windgrass) herbicidal effect grade ([15]; 402 g/ha): 0 (Herbicidal rate of 5% or less (almost no effect))
O (lambsquarters) herbicidal effect grade ([16]; 402 g/ha): 5 (Herbicidal rate of 90% or more (almost completely withered))
R (persian speedwell) herbicidal effect grade ([17]; 402 g/ha): 5 (Herbicidal rate of 90% or more (almost completely withered))

CCCC(=O)Oc1c(C)nn(C)c(=O)c1-c1c(-c2ccc(COC)cc2)oc2ccc(C)cc12 [9-062]
Herbicidal effect, A: late watergrass [1, 19]: 5 (Herbicidal rate of 90% or more (almost completely withered))
herbicidal effect grade, A: late watergrass [2, 19]: 3 (Herbicidal rate of 40% or more and less than 70%)
herbicidal effect grade, B: Japanese bulrush [3, 19]: 3 (Herbicidal rate of 40% or more and less than 70%)
herbicidal effect grade, C: oval-leafed pondweed [4, 19]: 3 (Herbicidal rate of 40% or more and less than 70%)
Herbicidal effect on H (barnyard grass), foliage application [5, 19]: 5 (Herbicidal rate of 90% or more (almost completely withered))
Herbicidal effect on E (rice flat sedge), foliage application [6, 19]: 5 (Herbicidal rate of 90% or more (almost completely withered))
G: green foxtail, herbicidal effect grade [7, 19]: 5 (Herbicidal rate of 90% or more (almost completely withered))
K: Italian ryegrass, herbicidal effect grade [8, 19]: 5 (Herbicidal rate of 90% or more (almost completely withered))
L: windgrass, herbicidal effect grade [9, 19]: 0 (Herbicidal rate of 5% or less (almost no effect))
P: chickweed, herbicidal effect grade [10, 19]: 3 (Herbicidal rate of 40% or more and less than 70%)
R: persian speedwell, herbicidal effect grade [11, 19]: 5 (Herbicidal rate of 90% or more (almost completely withered))
F (southern crabgrass) herbicidal effect grade ([12]; 320 g/ha): 5 (Herbicidal rate of 90% or more (almost completely withered))
G (green foxtail) herbicidal effect grade ([13]; 320 g/ha): 5 (Herbicidal rate of 90% or more (almost completely withered))
K (Italian ryegrass) herbicidal effect grade ([14]; 320 g/ha): 5 (Herbicidal rate of 90% or more (almost completely withered))
L (windgrass) herbicidal effect grade ([15]; 320 g/ha): 0 (Herbicidal rate of 5% or less (almost no effect))
O (lambsquarters) herbicidal effect grade ([16]; 320 g/ha): 5 (Herbicidal rate of 90% or more (almost completely withered))
R (persian speedwell) herbicidal effect grade ([17]; 320 g/ha): 5 (Herbicidal rate of 90% or more (almost completely withered))

COc1ccc2c(-c3c(O)c(C)nn(C)c3=O)c(-c3ccccc3OC)sc2c1 [Compound No. 3-065, 5-hydroxy-4-(6-methoxy-2-(2-methoxyphenyl)benzo[b]thiophen-3-yl)-2,6-dimethylpyridazin-3(2H)-one]
Herbicidal effect, A: late watergrass [1, 20]: 1 (Herbicidal rate of 5% or more and less than 20%)
herbicidal effect rating, A: late watergrass ([2]; AAH 214 g/ha): 0 (Herbicidal rate of 5% or less (almost no effect))
herbicidal effect rating, B: Japanese bulrush ([3]; AAH 214 g/ha): 1 (Herbicidal rate of 5% or more and less than 20%)
herbicidal effect rating, C: oval-leafed pondweed ([4]; AAH 214 g/ha): 3 (Herbicidal rate of 40% or more and less than 70%)
herbicidal effect on barnyard grass (H) ([5]; 214 g/ha): 5 (Herbicidal rate of 90% or more (almost completely withered))
herbicidal effect on rice flat sedge (E) ([6]; 214 g/ha): 5 (Herbicidal rate of 90% or more (almost completely withered))
G: green foxtail, herbicidal effect grade [7, 20]: 5 (Herbicidal rate of 90% or more (almost completely withered))
K: Italian ryegrass, herbicidal effect grade [8, 20]: 3 (Herbicidal rate of 40% or more and less than 70%)
L: windgrass, herbicidal effect grade [9, 20]: 3 (Herbicidal rate of 40% or more and less than 70%)
P: chickweed, herbicidal effect grade [10, 20]: 5 (Herbicidal rate of 90% or more (almost completely withered))
R: persian speedwell, herbicidal effect grade [11, 20]: 5 (Herbicidal rate of 90% or more (almost completely withered))
F: southern crabgrass, herbicidal effect grade ([12]; 214 g/ha): 4 (Herbicidal rate of 70% or more and less than 90%)
G: green foxtail, herbicidal effect grade ([13]; 214 g/ha): 5 (Herbicidal rate of 90% or more (almost completely withered))
K: Italian ryegrass, herbicidal effect grade ([14]; 214 g/ha): 4 (Herbicidal rate of 70% or more and less than 90%)
L: windgrass, herbicidal effect grade ([15]; 214 g/ha): 4 (Herbicidal rate of 70% or more and less than 90%)
O: lambsquarters, herbicidal effect grade ([16]; 214 g/ha): 3 (Herbicidal rate of 40% or more and less than 70%)
R: persian speedwell, herbicidal effect grade ([17]; 214 g/ha): 5 (Herbicidal rate of 90% or more (almost completely withered))

COc1ccc2c(-c3c(O)c(Cl)nn(C)c3=O)c(-c3ccccc3OC)sc2c1 [Compound No. 3-088, 6-chloro-5-hydroxy-4-(6-methoxy-2-(2-methoxyphenyl)benzo[b]thiophen-3-yl)-2-methylpyridazin-3(2H)-one]
Herbicidal effect, A: late watergrass [1, 19]: 5 (Herbicidal rate of 90% or more (almost completely withered))
herbicidal effect rating, A: late watergrass ([2]; AAH 320 g/ha): 3 (Herbicidal rate of 40% or more and less than 70%)
herbicidal effect rating, B: Japanese bulrush ([3]; AAH 320 g/ha): 3 (Herbicidal rate of 40% or more and less than 70%)
herbicidal effect rating, C: oval-leafed pondweed ([4]; AAH 320 g/ha): 3 (Herbicidal rate of 40% or more and less than 70%)
herbicidal effect on barnyard grass (H) ([5]; 320 g/ha): 5 (Herbicidal rate of 90% or more (almost completely withered))
herbicidal effect on rice flat sedge (E) ([6]; 320 g/ha): 5 (Herbicidal rate of 90% or more (almost completely withered))
G: green foxtail, herbicidal effect grade [7, 19]: 5 (Herbicidal rate of 90% or more (almost completely withered))
K: Italian ryegrass, herbicidal effect grade [8, 19]: 0 (Herbicidal rate of 5% or less (almost no effect))
L: windgrass, herbicidal effect grade [9, 19]: 0 (Herbicidal rate of 5% or less (almost no effect))
P: chickweed, herbicidal effect grade [10, 19]: 5 (Herbicidal rate of 90% or more (almost completely withered))
R: persian speedwell, herbicidal effect grade [11, 19]: 4 (Herbicidal rate of 70% or more and less than 90%)
F: southern crabgrass, herbicidal effect grade ([12]; 320 g/ha): 0 (Herbicidal rate of 5% or less (almost no effect))
G: green foxtail, herbicidal effect grade ([13]; 320 g/ha): 5 (Herbicidal rate of 90% or more (almost completely withered))
K: Italian ryegrass, herbicidal effect grade ([14]; 320 g/ha): 0 (Herbicidal rate of 5% or less (almost no effect))
L: windgrass, herbicidal effect grade ([15]; 320 g/ha): 3 (Herbicidal rate of 40% or more and less than 70%)
O: lambsquarters, herbicidal effect grade ([16]; 320 g/ha): 4 (Herbicidal rate of 70% or more and less than 90%)
R: persian speedwell, herbicidal effect grade ([17]; 320 g/ha): 5 (Herbicidal rate of 90% or more (almost completely withered))

— US20230085307A1, “PYRIDAZINONE COMPOUND AND HERBICIDE” (NISSAN CHEMICAL CORPORATION, priority 2019, published 2023)
